Common to all, as to experiment: relative viability (nuclei count vs DMSO), 5 days (fraction); higher = more cells survive
Compound in the assay “Mirin + Decitabine”: N=C1NC(=O)/C(=C/c2ccc(O)cc2)S1 [Mirin] + Nc1ncn([C@H]2C[C@H](O)[C@@H](CO)O2)c(=O)n1 [Decitabine] (partner 2 µM)
The method, boiled down:
(§1)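 Lung cancer cell lines were seeded in 1536-well plates and dosed by pin tool the next day, with either a single drug or a fixed anchor-drug dose combined with five library-drug doses (not always all listed) spaced in √10 steps. Five days later, one step fixed the cells and stained their nuclei (final 0.05% Triton X-100, 1% formaldehyde, 1 ug/ml Hoechst), and nuclei were counted on 4× images. Relative viability is the nuclei count in treated wells divided by the count in vehicle wells, and each value is the median of duplicate plates.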

Compound in assay [1]: CCn1c(-c2nonc2N)nc2cnc(Oc3cccc(NC(=O)c4ccc(OCCN5CCOCC5)cc4)c3)cc21 + N=C(N)NC(=N)NCCc1ccccc1 [Phenformin] (partner 250 µM)
The essentials:
as §1

Compound in assay [2]: CCn1c(-c2nonc2N)nc2cnc(Oc3cccc(NC(=O)c4ccc(OCCN5CCOCC5)cc4)c3)cc21 + Cc1nc(Nc2ncc(C(=O)Nc3c(C)cccc3Cl)s2)cc(N2CCN(CCO)CC2)n1 [Dasatinib] (partner 0.075 µM)
The method, boiled down:
as §1

Compound in assay [3]: CCn1c(-c2nonc2N)nc2cnc(Oc3cccc(NC(=O)c4ccc(OCCN5CCOCC5)cc4)c3)cc21 + NC(=O)Nc1cc(-c2cccc(F)c2)sc1C(=O)N[C@H]1CCCNC1 [AZD7762] (partner 0.2 µM)
The method, boiled down: as §1

As for NCI-H647, the relative viability with Mirin + Decitabine (first compound 0.25 µM) was determined as 0.446; with Mirin + Decitabine (first compound 0.7906 µM), 0.423; with Mirin + Decitabine (first compound 2.5 µM), 0.361; with Mirin + Decitabine (first compound 7.906 µM) it was 0.401; in the assay with Mirin + Decitabine (first compound 25 µM), 0.387; in assay [1] (first compound 0.04 µM), 0.455. The relative viability was 0.399 in assay [1] (first compound 0.1265 µM); 0.357 in assay [1] (first compound 0.4 µM); 0.339 in assay [1] (first compound 1.265 µM); 0.272 in assay [1] (first compound 4 µM); 0.145 in assay [2] (first compound 0.04 µM); 0.0946 in assay [2] (first compound 0.1265 µM). Besides, the relative viability in assay [2] (first compound 0.4 µM) turned out to be 0.0784; in assay [2] (first compound 1.265 µM) it was 0.122; in assay [2] (first compound 4 µM), 0.0956; in assay [3] (first compound 0.04 µM), 0.523; in assay [3] (first compound 0.1265 µM), 0.242; in assay [3] (first compound 0.4 µM), 0.249. Moreover, the relative viability amounted to 0.193 in assay [3] (first compound 1.265 µM) and 0.121 in assay [3] (first compound 4 µM).
For NCI-H650, the relative viability came out at 0.32 with Mirin + Decitabine (first compound 0.25 µM); 0.335 with Mirin + Decitabine (first compound 0.7906 µM); 0.306 with Mirin + Decitabine (first compound 2.5 µM); 0.294 in the assay with Mirin + Decitabine (first compound 7.906 µM); 0.354 in the assay with Mirin + Decitabine (first compound 25 µM); 0.485 in assay [1] (first compound 0.04 µM). Also, the relative viability was 0.381 in assay [1] (first compound 0.1265 µM); 0.258 in assay [1] (first compound 0.4 µM); 0.246 in assay [1] (first compound 1.265 µM); 0.292 in assay [1] (first compound 4 µM); 0.4 in assay [2] (first compound 0.04 µM); 0.317 in assay [2] (first compound 0.1265 µM). Moreover, the relative viability in assay [2] (first compound 0.4 µM) worked out at 0.216; in assay [2] (first compound 1.265 µM) it was 0.248; in assay [2] (first compound 4 µM), 0.276; in assay [3] (first compound 0.04 µM), 1.15; in assay [3] (first compound 0.1265 µM), 0.871; in assay [3] (first compound 0.4 µM), 0.46. Further, the values for the relative viability in assay [3] (first compound 1.265 µM) and in assay [3] (first compound 4 µM) were 0.263 and 0.354, respectively.
Turning to NCI-H727, the relative viability in the assay with Mirin + Decitabine (first compound 0.25 µM) was found to be 0.603; with Mirin + Decitabine (first compound 0.7906 µM), 0.83; in the assay with Mirin + Decitabine (first compound 2.5 µM) it was 1; with Mirin + Decitabine (first compound 7.906 µM), 0.865; with Mirin + Decitabine (first compound 25 µM), 0.922; in assay [1] (first compound 0.04 µM), 0.793. Moreover, the relative viability in assay [1] (first compound 0.1265 µM) was 0.694; in assay [1] (first compound 0.4 µM) it was 0.499; in assay [1] (first compound 1.265 µM) it was 0.588; in assay [1] (first compound 4 µM), 0.529; in assay [2] (first compound 0.04 µM) it was 0.507; in assay [2] (first compound 0.1265 µM), 0.621. In addition, the relative viability in assay [2] (first compound 0.4 µM) worked out at 0.405; in assay [2] (first compound 1.265 µM), 0.467; in assay [2] (first compound 4 µM), 0.521; in assay [3] (first compound 0.1265 µM) it was 0.699; in assay [3] (first compound 0.4 µM) it was 0.539; in assay [3] (first compound 1.265 µM) it was 0.566. In addition, in assay [3] (first compound 4 µM), the relative viability worked out at 0.739.
In the case of NCI-H838, the relative viability with Mirin + Decitabine (first compound 0.25 µM) is 0.432; in the assay with Mirin + Decitabine (first compound 0.7906 µM), 0.424; in the assay with Mirin + Decitabine (first compound 2.5 µM) it was 0.517; with Mirin + Decitabine (first compound 7.906 µM) it was 0.424; with Mirin + Decitabine (first compound 25 µM) it was 0.361; in assay [1] (first compound 0.04 µM), 0.501. The relative viability in assay [1] (first compound 0.1265 µM) amounted to 0.285; in assay [1] (first compound 0.4 µM) it was 0.201; in assay [1] (first compound 1.265 µM), 0.227; in assay [1] (first compound 4 µM), 0.222; in assay [2] (first compound 0.04 µM), 0.314; in assay [2] (first compound 0.1265 µM) it was 0.192. Also, the relative viability in assay [2] (first compound 0.4 µM) was 0.199; in assay [2] (first compound 1.265 µM), 0.208; in assay [2] (first compound 4 µM), 0.183; in assay [3] (first compound 0.04 µM), 0.946; in assay [3] (first compound 0.1265 µM), 0.725; in assay [3] (first compound 0.4 µM), 0.669. The values for the relative viability in assay [3] (first compound 1.265 µM) and in assay [3] (first compound 4 µM) were 0.635 and 0.691, respectively.
Take NCI-H1355: the relative viability is 0.365 with Mirin + Decitabine (first compound 0.25 µM); 0.367 with Mirin + Decitabine (first compound 0.7906 µM); 0.391 in the assay with Mirin + Decitabine (first compound 2.5 µM); 0.38 with Mirin + Decitabine (first compound 7.906 µM); 0.365 with Mirin + Decitabine (first compound 25 µM); 0.53 in assay [1] (first compound 0.04 µM). In addition, the relative viability in assay [1] (first compound 0.1265 µM) worked out at 0.426; in assay [1] (first compound 0.4 µM) it was 0.261; in assay [1] (first compound 1.265 µM), 0.24; in assay [1] (first compound 4 µM), 0.227; in assay [2] (first compound 0.04 µM), 0.755; in assay [2] (first compound 0.1265 µM), 0.712. Moreover, the relative viability in assay [2] (first compound 0.4 µM) was 0.235; in assay [2] (first compound 1.265 µM) it was 0.312; in assay [2] (first compound 4 µM), 0.275; in assay [3] (first compound 0.04 µM) it was 0.676; in assay [3] (first compound 0.1265 µM), 0.684; in assay [3] (first compound 0.4 µM), 0.369. Moreover, the results for the relative viability in assay [3] (first compound 1.265 µM) and in assay [3] (first compound 4 µM) were 0.313 and 0.217, respectively.
Turning to NCI-H1395, the relative viability with Mirin + Decitabine (first compound 0.25 µM) amounted to 0.721; in the assay with Mirin + Decitabine (first compound 2.5 µM) it was 0.814; with Mirin + Decitabine (first compound 7.906 µM) it was 0.741; with Mirin + Decitabine (first compound 25 µM), 0.66; in assay [1] (first compound 0.04 µM), 0.517; in assay [1] (first compound 0.1265 µM), 0.45. The relative viability in assay [1] (first compound 0.4 µM) was 0.453; in assay [1] (first compound 1.265 µM) it was 0.305; in assay [1] (first compound 4 µM), 0.365; in assay [2] (first compound 0.04 µM), 0.398; in assay [2] (first compound 0.1265 µM) it was 0.37; in assay [2] (first compound 0.4 µM) it was 0.342. The relative viability is 0.317 in assay [2] (first compound 1.265 µM); 0.345 in assay [2] (first compound 4 µM); 0.356 in assay [3] (first compound 0.04 µM); 0.36 in assay [3] (first compound 0.1265 µM); 0.359 in assay [3] (first compound 0.4 µM); 0.352 in assay [3] (first compound 1.265 µM). Further, the relative viability in assay [3] (first compound 4 µM) was 0.333.
In the case of NCI-H1437, the relative viability worked out at 0.571 with Mirin + Decitabine (first compound 0.25 µM); 0.559 in the assay with Mirin + Decitabine (first compound 0.7906 µM); 0.606 with Mirin + Decitabine (first compound 2.5 µM); 0.647 in the assay with Mirin + Decitabine (first compound 7.906 µM); 0.555 in the assay with Mirin + Decitabine (first compound 25 µM); 0.321 in assay [1] (first compound 0.04 µM). In addition, the relative viability in assay [1] (first compound 0.1265 µM) was 0.312; in assay [1] (first compound 0.4 µM), 0.239; in assay [1] (first compound 1.265 µM), 0.295; in assay [1] (first compound 4 µM), 0.288; in assay [2] (first compound 0.04 µM) it was 0.629; in assay [2] (first compound 0.1265 µM) it was 0.373. Further, the relative viability in assay [2] (first compound 0.4 µM) was determined as 0.148; in assay [2] (first compound 1.265 µM) it was 0.363; in assay [2] (first compound 4 µM), 0.35; in assay [3] (first compound 0.04 µM) it was 1.13; in assay [3] (first compound 0.1265 µM) it was 1.08; in assay [3] (first compound 0.4 µM), 0.718. Moreover, the relative viability in assay [3] (first compound 1.265 µM) came out at 0.625; in assay [3] (first compound 4 µM), 0.642.
